What was measured:
AsPC-1 cells = assay: AsPC-1 cell proliferation assay (CellTiter Glo); type: cell-based; conditions: 6 days
How it was run: (§1)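 Degradation: 22,000 cells/well grown to ~90% confluency, 24 h compound, fixed/permeabilised, anti-KRAS G12D + β-actin antibodies, near-IR fluorescence, DC50. Proliferation: 3,500 cells/well overnight, 6 d compound, CellTiter Glo luminescence, IC50. Dosing […]–1.5 nM final, 1:3 steps.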

KRAS (G12D) = target: T1, KRAS (G12D) (Homo sapiens, UniProt P01116, G12D); assay: KRAS (G12D) cellular degradation assay in AsPC-1 cells; type: cell-based; conditions: 24 hours, antibody fluorescence (Odyssey CLX), DC50 half-maximal degradation concentration
T1 construct: in-cell western with KRAS G12D antibody after 24 h
T1 sequence (P01116 1-188 isoform P01116-2 G12D): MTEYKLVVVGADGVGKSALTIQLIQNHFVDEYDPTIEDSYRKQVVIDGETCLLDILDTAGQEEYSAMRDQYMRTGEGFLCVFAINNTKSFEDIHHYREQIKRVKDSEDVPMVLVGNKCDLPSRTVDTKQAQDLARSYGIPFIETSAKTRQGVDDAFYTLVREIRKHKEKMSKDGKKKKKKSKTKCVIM
How it was run: as §1

SMILES | IC50 (AsPC-1 cells; Homo sapiens, ASPC1, 144 h) | DC50 (KRAS (G12D)) | IC50 (AsPC-1 cells)
CO[C@@H](C)COc1nc(N2C[C@@H]3C[C@H]2CN3)c2cc(C3CC3)c(-c3c(C)c(F)cc4[nH]ncc34)c(OCc3ccc(-c4cn([C@H](C(=O)N5C[C@H](O)C[C@H]5C(=O)N[C@H](C#Cc5c(F)cccc5F)CO)C(C)C)nn4)cc3)c2n1 [Example 42, (2S,4R)-1-((2S)-2-(4-(4-(((4-((1S,4S)-2,5-diazabicyclo[2.2.1]heptan-2-yl)-6-cyclopropyl-7-(6-fluoro-5-methyl-1H-indazol-4-yl)-2-((S)-2-methoxypropoxy)quinazolin-8-yl)oxy)methyl)phenyl)-1H-1,2,3-triazol-1-yl)-3-methylbutanoyl)-N—((R)-4-(2,6-difluorophenyl)-1-hydroxybut-3-yn-2-yl)-4-hydroxypyrrolidine-2-carboxamide] | 10 to 100 nM | 10 to 100 nM | –
CO[C@@H](C)COc1nc(N2C[C@H]3C[C@@H]2CN3)c2cc(C3CC3)c(-c3c(C)c(F)cc4[nH]ncc34)c(OCc3ccc(-c4cn([C@H](C(=O)N5C[C@H](O)C[C@H]5C(=O)N[C@@H](C)c5ccc(-c6scnc6C)cc5)C(C)C)nn4)cc3)c2n1 (single isomer, unassigned) [Example 3B] | – | > 1000 nM | > 1000 nM
Cc1ncsc1-c1ccc([C@H](CO)NC(=O)[C@@H]2C[C@@H](O)CN2C(=O)[C@H](C(C)C)n2cc(-c3ccc(COc4c(-c5c(C)c(F)c(F)c6[nH]ncc56)c(C5CC5)cc5c(N6C[C@@H]7C[C@H]6CN7)nc(OC6CCOCC6)nc45)cc3)nn2)cc1 [Example 76, (2S,4R)-1-((2S)-2-(4-(4-(((4-((1S,4S)-2,5-diazabicyclo[2.2.1]heptan-2-yl)-6-cyclopropyl-7-(6,7-difluoro-5-methyl-1H-indazol-4-yl)-2-((tetrahydro-2H-pyran-4-yl)oxy)quinazolin-8-yl)oxy)methyl)phenyl)-1H-1,2,3-triazol-1-yl)-3-methylbutanoyl)-4-hydroxy-N—((R)-2-hydroxy-1-(4-(4-methylthiazol-5-yl)phenyl)ethyl)pyrrolidine-2-carboxamide] | < 10 nM | < 10 nM | –
CC[C@H](O)[C@H](NC(=O)[C@@H]1C[C@@H](O)CN1C(=O)[C@H](C(C)C)n1cc(-c2ccc(COc3c(-c4c(C)c(F)cc5[nH]ncc45)c(C4CC4)cc4c(N5C[C@@H]6C[C@H]5CN6)nc(OC5CCOCC5)nc34)cc2)nn1)c1ccc(-c2scnc2C)cc1 [Example 139, (2S,4R)-1-((2S)-2-(4-(4-(((4-((1S,4S)-2,5-diazabicyclo[2.2.1]heptan-2-yl)-6-cyclopropyl-7-(6-fluoro-5-methyl-1H-indazol-4-yl)-2-((tetrahydro-2H-pyran-4-yl)oxy)quinazolin-8-yl)oxy)methyl)phenyl)-1H-1,2,3-triazol-1-yl)-3-methylbutanoyl)-4-hydroxy-N-((1R,2S)-2-hydroxy-1-(4-(4-methylthiazol-5-yl)phenyl)butyl)pyrrolidine-2-carboxamide] | < 10 nM | < 10 nM | –
Cc1ncsc1-c1ccc([C@@H](NC(=O)[C@@H]2C[C@@H](O)CN2C(=O)[C@H](C(C)C)n2cc(-c3ccc(COc4c(-c5c(C)c(F)cc6[nH]ncc56)c(C5CC5)cc5c(N6C[C@@H]7C[C@H]6CN7)nc(OC6CCOCC6)nc45)cc3)nn2)[C@@H](O)C2CC2)cc1 [Example 138, (2S,4R)-1-((2S)-2-(4-(4-(((4-((1S,4S)-2,5-diazabicyclo[2.2.1]heptan-2-yl)-6-cyclopropyl-7-(6-fluoro-5-methyl-1H-indazol-4-yl)-2-((tetrahydro-2H-pyran-4-yl)oxy)quinazolin-8-yl)oxy)methyl)phenyl)-1H-1,2,3-triazol-1-yl)-3-methylbutanoyl)-N-((1R,2S)-2-cyclopropyl-2-hydroxy-1-(4-(4-methylthiazol-5-yl)phenyl)ethyl)-4-hydroxypyrrolidine-2-carboxamide] | < 10 nM | < 10 nM | –
CO[C@@H](C)COc1nc(N2C[C@@H]3C[C@H]2CN3)c2cc(C3CC3)c(-c3c(C)c(F)cc4[nH]ncc34)c(OCc3ccc(-c4cn([C@H](C(=O)N5C[C@H](O)C[C@H]5C(=O)N[C@H](C#Cc5scnc5C)CO)C(C)C)nn4)cc3)c2n1 [Example 41, (2S,4R)-1-((2S)-2-(4-(4-(((4-((1S,4S)-2,5-diazabicyclo[2.2.1]heptan-2-yl)-6-cyclopropyl-7-(6-fluoro-5-methyl-1H-indazol-4-yl)-2-((S)-2-methoxypropoxy)quinazolin-8-yl)oxy)methyl)phenyl)-1H-1,2,3-triazol-1-yl)-3-methylbutanoyl)-4-hydroxy-N—((R)-1-hydroxy-4-(4-methylthiazol-5-yl)but-3-yn-2-yl)pyrrolidine-2-carboxamide] | < 10 nM | < 10 nM | –
CCn1nccc1-c1ccc([C@H](CO)NC(=O)[C@@H]2C[C@@H](O)CN2C(=O)[C@H](C(C)C)n2cc(-c3ccc(COc4c(-c5c(C)c(F)cc6[nH]ncc56)c(C5CC5)cc5c(N6CC7CCC(C6)N7)nc(OC[C@H](C)OC)nc45)cc3)nn2)cc1 (single isomer, unassigned) [Example 13A] | 10 to 100 nM | 10 to 100 nM | –

Next, values leading:

IC50 (AsPC-1 cells; Homo sapiens, ASPC1, 144 h) | DC50 (KRAS (G12D)) | IC50 (AsPC-1 cells) | SMILES
< 10 nM | < 10 nM | – | CO[C@@H](C)COc1nc(N2C[C@@H]3C[C@H]2CN3)c2cc(C3CC3)c(-c3c(C)c(F)cc4[nH]ncc34)c(OCc3ccc(-c4cn([C@H](C(=O)N5C[C@H](O)C[C@H]5C(=O)N[C@H](C#Cc5cccc(F)c5)CO)C(C)C)nn4)cc3)c2n1 [Example 77, (2S,4R)-1-((2S)-2-(4-(4-(((4-((1S,4S)-2,5-diazabicyclo[2.2.1]heptan-2-yl)-6-cyclopropyl-7-(6-fluoro-5-methyl-1H-indazol-4-yl)-2-((S)-2-methoxypropoxy)quinazolin-8-yl)oxy)methyl)phenyl)-1H-1,2,3-triazol-1-yl)-3-methylbutanoyl)-N—((R)-4-(3-fluorophenyl)-1-hydroxybut-3-yn-2-yl)-4-hydroxypyrrolidine-2-carboxamide]
< 10 nM | < 10 nM | – | CCn1nccc1-c1ccc([C@H](CO)NC(=O)[C@@H]2C[C@@H](O)CN2C(=O)[C@H](C(C)C)n2cc(-c3ccc(COc4c(-c5c(C)c(F)cc6[nH]ncc56)c(C5CC5)cc5c(N6CCCOCC6)nc(OC[C@H](C)OC)nc45)cc3)nn2)cc1 [Example 180, (2S,4R)-1-((2S)-2-(4-(4-(((6-cyclopropyl-7-(6-fluoro-5-methyl-1H-indazol-4-yl)-2-((S)-2-methoxypropoxy)-4-(1,4-oxazepan-4-yl)quinazolin-8-yl)oxy)methyl)phenyl)-1H-1,2,3-triazol-1-yl)-3-methylbutanoyl)-N—((R)-1-(4-(1-ethyl-1H-pyrazol-5-yl)phenyl)-2-hydroxyethyl)-4-hydroxypyrrolidine-2-carboxamide]
< 10 nM | < 10 nM | – | CCn1nccc1-c1ccc([C@H](CO)NC(=O)[C@@H]2C[C@@H](O)CN2C(=O)[C@H](C(C)C)n2cc(-c3ccc(COc4c(-c5c(C)c(F)cc6[nH]ncc56)c(C5CC5)cc5c(N6C[C@@H]7C[C@H]6CN7)nc(O[C@H]6CO[C@H]7OCC[C@H]76)nc45)cc3)nn2)cc1 [Example 56, (2S,4R)-1-((2S)-2-(4-(4-(((4-((1S,4S)-2,5-diazabicyclo[2.2.1]heptan-2-yl)-6-cyclopropyl-7-(6-fluoro-5-methyl-1H-indazol-4-yl)-2-(((3R,3aS,6aR)-hexahydrofuro[2,3-b]furan-3-yl)oxy)quinazolin-8-yl)oxy)methyl)phenyl)-1H-1,2,3-triazol-1-yl)-3-methylbutanoyl)-N—((R)-1-(4-(1-ethyl-1H-pyrazol-5-yl)phenyl)-2-hydroxyethyl)-4-hydroxypyrrolidine-2-carboxamide]
< 10 nM | < 10 nM | – | CCn1nccc1-c1ccc([C@@H](NC(=O)[C@@H]2C[C@@H](O)CN2C(=O)[C@H](C(C)C)n2cc(-c3ccc(COc4c(-c5c(C)c(F)cc6[nH]ncc56)c(C5CCC5)cc5c(N6C[C@@H]7C[C@H]6CN7)nc(OC[C@H](C)OC)nc45)cc3)nn2)[C@H](C)O)cc1 [Example 88, (2S,4R)-1-((2S)-2-(4-(4-(((4-((1S,4S)-2,5-diazabicyclo[2.2.1]heptan-2-yl)-6-cyclobutyl-7-(6-fluoro-5-methyl-1H-indazol-4-yl)-2-((S)-2-methoxypropoxy)quinazolin-8-yl)oxy)methyl)phenyl)-1H-1,2,3-triazol-1-yl)-3-methylbutanoyl)-N-((1R,2S)-1-(4-(1-ethyl-1H-pyrazol-5-yl)phenyl)-2-hydroxypropyl)-4-hydroxypyrrolidine-2-carboxamide]
– | < 10 nM | < 10 nM | CO[C@@H](C)COc1nc(N(C)[C@H]2CCNC2)c2cc(C3CC3)c(-c3c(C)c(F)cc4[nH]ncc34)c(OCc3ccc(-c4cn([C@H](C(=O)N5C[C@H](O)C[C@H]5C(=O)N[C@H](c5ccc(-c6scnc6C)cc5)[C@H](C)O)C(C)C)nn4)cc3)c2n1 [Example 143, (2S,4R)-1-((2S)-2-(4-(4-(((6-cyclopropyl-7-(6-fluoro-5-methyl-1H-indazol-4-yl)-2-((S)-2-methoxypropoxy)-4-(methyl((S)-pyrrolidin-3-yl)amino)quinazolin-8-yl)oxy)methyl)phenyl)-1H-1,2,3-triazol-1-yl)-3-methylbutanoyl)-4-hydroxy-N-((1R,2S)-2-hydroxy-1-(4-(4-methylthiazol-5-yl)phenyl)propyl)pyrrolidine-2-carboxamide]
< 10 nM | < 10 nM | – | CCn1nccc1-c1ccc([C@@H](NC(=O)[C@@H]2C[C@@H](O)CN2C(=O)[C@H](C(C)C)n2cc(-c3ccc(COc4c(-c5c(C)c(F)cc6[nH]ncc56)c(C5CC5)cc5c(N6C[C@@H]7C[C@H]6CN7)nc(OC6CC7COCC7C6)nc45)cc3)nn2)[C@H](C)O)cc1 (stereo partly drawn) [Example 115, (2S,4R)-1-((2S)-2-(4-(4-(((4-((1S,4S)-2,5-diazabicyclo[2.2.1]heptan-2-yl)-6-cyclopropyl-7-(6-fluoro-5-methyl-1H-indazol-4-yl)-2-((hexahydro-1H-cyclopenta[c]furan-5-yl)oxy)quinazolin-8-yl)oxy)methyl)phenyl)-1H-1,2,3-triazol-1-yl)-3-methylbutanoyl)-N-((1R,2S)-1-(4-(1-ethyl-1H-pyrazol-5-yl)phenyl)-2-hydroxypropyl)-4-hydroxypyrrolidine-2-carboxamide]

From patent US20260295053A1, “COMPOUNDS FOR DEGRADATION AND INHIBITION OF KRAS (G12D) PROTEIN” (Shenzhen Ionova Life Science Co., Ltd., priority 2023, published 2026)
